Data reported in US8192962B2, “Processes for detecting toxic substances” (Daikin Industries, Ltd., priority 2001, dated 2012).

System: Mitochondria-located protein genes
Experiment: DNA chip mRNA expression in yeast, mitochondria-located protein genes (Table 2)
Format: cell-based, Saccharomyces cerevisiae S288C
Conditions: cells incubated two hours with the chemical substance
Procedure, shortened: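 Chemical exposure: 2 h, log-phase S. cerevisiae S288C, YPD, 25° C., dose set to inhibit growth without death. Profiling: mRNA labeled by reverse transcription with Cy3- or Cy5-dUTP, hybridized to whole-genome array. Output: fluorescence ratio against untreated culture.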

## CCCCCCCCCCCCOS(=O)(=O)[O-].[Na+] [(18), sodium lauryl sulfate]
Yeast gene YJR121W
  The level of expressed mRNA in the presence of chemical substance/The level of expressed mRNA in the absence of chemical substance: 1.4
Yeast gene YKL003C
  The level of expressed mRNA in the presence of chemical substance/The level of expressed mRNA in the absence of chemical substance: 1.2
Yeast gene YKL016C
  The level of expressed mRNA in the presence of chemical substance/The level of expressed mRNA in the absence of chemical substance: 1.7
Yeast gene YKL141W
  The level of expressed mRNA in the presence of chemical substance/The level of expressed mRNA in the absence of chemical substance: 1.8
Yeast gene YKL142W
  The level of expressed mRNA in the presence of chemical substance/The level of expressed mRNA in the absence of chemical substance: 3.6
Yeast gene YKL148C
  The level of expressed mRNA in the presence of chemical substance/The level of expressed mRNA in the absence of chemical substance: 1.0
Yeast gene YKL170W
  The level of expressed mRNA in the presence of chemical substance/The level of expressed mRNA in the absence of chemical substance: 1.4
Yeast gene YKL194C
  The level of expressed mRNA in the presence of chemical substance/The level of expressed mRNA in the absence of chemical substance: 1.1
Yeast gene YKR066C
  The level of expressed mRNA in the presence of chemical substance/The level of expressed mRNA in the absence of chemical substance: 1.1
Yeast gene YLL041C
  The level of expressed mRNA in the presence of chemical substance/The level of expressed mRNA in the absence of chemical substance: 1.7
Yeast gene YLR038C
  The level of expressed mRNA in the presence of chemical substance/The level of expressed mRNA in the absence of chemical substance: 2.1
Yeast gene YLR259C
  The level of expressed mRNA in the presence of chemical substance/The level of expressed mRNA in the absence of chemical substance: 1.0
Yeast gene YLR295C
  The level of expressed mRNA in the presence of chemical substance/The level of expressed mRNA in the absence of chemical substance: 1.5
Yeast gene YLR304C
  The level of expressed mRNA in the presence of chemical substance/The level of expressed mRNA in the absence of chemical substance: 0.7
Yeast gene YLR348C
  The level of expressed mRNA in the presence of chemical substance/The level of expressed mRNA in the absence of chemical substance: 1.0
Yeast gene YLR395C
  The level of expressed mRNA in the presence of chemical substance/The level of expressed mRNA in the absence of chemical substance: 2.3
Yeast gene YML054C
  The level of expressed mRNA in the presence of chemical substance/The level of expressed mRNA in the absence of chemical substance: 1.6
Yeast gene YML120C
  The level of expressed mRNA in the presence of chemical substance/The level of expressed mRNA in the absence of chemical substance: 1.6
Yeast gene YML129C
  The level of expressed mRNA in the presence of chemical substance/The level of expressed mRNA in the absence of chemical substance: 1.3
Yeast gene YMR023C
  The level of expressed mRNA in the presence of chemical substance/The level of expressed mRNA in the absence of chemical substance: 1.4
Yeast gene YMR035W
  The level of expressed mRNA in the presence of chemical substance/The level of expressed mRNA in the absence of chemical substance: 2.4
Yeast gene YMR083W
  The level of expressed mRNA in the presence of chemical substance/The level of expressed mRNA in the absence of chemical substance: 1.1
Yeast gene YMR089C
  The level of expressed mRNA in the presence of chemical substance/The level of expressed mRNA in the absence of chemical substance: 1.1
Yeast gene YMR152W
  The level of expressed mRNA in the presence of chemical substance/The level of expressed mRNA in the absence of chemical substance: 0.9
Yeast gene YMR203W
  The level of expressed mRNA in the presence of chemical substance/The level of expressed mRNA in the absence of chemical substance: 0.7
Yeast gene YMR267W
  The level of expressed mRNA in the presence of chemical substance/The level of expressed mRNA in the absence of chemical substance: 1.3
Yeast gene YNL055C
  The level of expressed mRNA in the presence of chemical substance/The level of expressed mRNA in the absence of chemical substance: 1.7
Yeast gene YNL071W
  The level of expressed mRNA in the presence of chemical substance/The level of expressed mRNA in the absence of chemical substance: 1.2
Yeast gene YNL073W
  The level of expressed mRNA in the presence of chemical substance/The level of expressed mRNA in the absence of chemical substance: 1.0
Yeast gene YNL104C
  The level of expressed mRNA in the presence of chemical substance/The level of expressed mRNA in the absence of chemical substance: 0.9
Yeast gene YNL256W
  The level of expressed mRNA in the presence of chemical substance/The level of expressed mRNA in the absence of chemical substance: 0.6
Yeast gene YOL096C
  The level of expressed mRNA in the presence of chemical substance/The level of expressed mRNA in the absence of chemical substance: 1.2
Yeast gene YOR020C
  The level of expressed mRNA in the presence of chemical substance/The level of expressed mRNA in the absence of chemical substance: 1.7
Yeast gene YOR037W
  The level of expressed mRNA in the presence of chemical substance/The level of expressed mRNA in the absence of chemical substance: 1.6
Yeast gene YOR100C
  The level of expressed mRNA in the presence of chemical substance/The level of expressed mRNA in the absence of chemical substance: 0.8
Yeast gene YOR130C
  The level of expressed mRNA in the presence of chemical substance/The level of expressed mRNA in the absence of chemical substance: 1.1
Yeast gene YOR142W
  The level of expressed mRNA in the presence of chemical substance/The level of expressed mRNA in the absence of chemical substance: 1.0
Yeast gene YOR150W
  The level of expressed mRNA in the presence of chemical substance/The level of expressed mRNA in the absence of chemical substance: 1.3
Yeast gene YOR176W
  The level of expressed mRNA in the presence of chemical substance/The level of expressed mRNA in the absence of chemical substance: 2.1
Yeast gene YOR187W
  The level of expressed mRNA in the presence of chemical substance/The level of expressed mRNA in the absence of chemical substance: 1.3
Yeast gene YOR316C
  The level of expressed mRNA in the presence of chemical substance/The level of expressed mRNA in the absence of chemical substance: 1.0
Yeast gene YPL040C
  The level of expressed mRNA in the presence of chemical substance/The level of expressed mRNA in the absence of chemical substance: 1.1
Yeast gene YPL134C
  The level of expressed mRNA in the presence of chemical substance/The level of expressed mRNA in the absence of chemical substance: 1.3
Yeast gene YPL135W
  The level of expressed mRNA in the presence of chemical substance/The level of expressed mRNA in the absence of chemical substance: 1.7
Yeast gene YPL215W
  The level of expressed mRNA in the presence of chemical substance/The level of expressed mRNA in the absence of chemical substance: 1.1
Yeast gene YPL262W
  The level of expressed mRNA in the presence of chemical substance/The level of expressed mRNA in the absence of chemical substance: 1.2
Yeast gene YPR024W
  The level of expressed mRNA in the presence of chemical substance/The level of expressed mRNA in the absence of chemical substance: 0.8
Yeast gene YPR037C
  The level of expressed mRNA in the presence of chemical substance/The level of expressed mRNA in the absence of chemical substance: 1.7
Yeast gene YPR047W
  The level of expressed mRNA in the presence of chemical substance/The level of expressed mRNA in the absence of chemical substance: 1.5
Yeast gene YPR134W
  The level of expressed mRNA in the presence of chemical substance/The level of expressed mRNA in the absence of chemical substance: 1.2
